In patent US6506769B2, “Heterocyclic compounds useful as inhibitors of tyrosine kinases” (Boehringer Ingelheim Pharmaceuticals, Inc., priority 1999, dated 2003) one finds melting point data, which are given here for 19 compounds.

Broadly, the melting point is the temperature, or range, at which the solid turns liquid.

Take `CC1(C)C(=O)NC(=O)c2c1ccc1nc(Nc3c(Cl)cccc3Cl)[nH]c21` [Example 1, 2-(2,6-Dichlorophenylamino)-6,6-dimethyl-1H,6H-imidazo[4,5-h]isoquinoline-7,9-dione]: the melting point lay in the range of 290 to 292 °C.

On to `CC1(C)CNC(=O)c2c1ccc1nc(Nc3c(Cl)cccc3Cl)[nH]c21` [Example 2, 2-(2,6-Dichlorophenylamino)-6,6-dimethyl-7,8-dihydro-1H,6H-imidazo[4,5-h]isoquinoline-9-one], for which the melting point was 287 to 290 °C.

`Cc1[nH]c(=O)c2c(ccc3nc(Nc4c(Cl)cccc4Cl)[nH]c32)c1C` [Example 3a, 2-(2,6-Dichlorophenylamino)-6,7-dimethyl-1,8-dihydro-imidazo[4,5-h]isoquinoline-9-one] returned a melting point of more than 300 °C.

`CC1(C)C(=O)NC(=O)c2c1ccc1nc(Nc3c(Cl)cccc3Cl)sc21` [Example 5, 2-(2,6-Dichlorophenylamino)-6,6-dimethyl-6H-thiazolo[4,5-h]isoquinoline-7,9-dione] displayed a melting point of more than 300 °C.

For `Cc1[nH]c(=O)c2c(ccc3nc(Nc4c(Cl)cccc4Cl)n(C)c32)c1CC(=O)N1CCOCC1` [Example 7, 2-(2,6-Dichlorophenylamino)-1,7-dimethyl-6-(2-morpholin-4-yl-2-oxoethyl)-1,8-dihydro-imidazo[4,5-h]isoquinoline-9-one], the melting point is more than 300 °C.

In turn, `Cc1[nH]c(=O)c2c(ccc3nc(Nc4c(Cl)cccc4Cl)n(C)c32)c1CCN1CCOCC1` [Example 8, 2-(2,6-Dichlorophenylamino)-1,7-dimethyl-6-(2-morpholin-4-yl-ethyl)-1,8-dihydro-imidazo[4,5-h]isoquinoline-9-one] displayed a melting point of 285 to 290 °C.

As to `CCOC(=O)Cc1c(C)[nH]c(=O)c2c1ccc1nc(Nc3c(Cl)cccc3Cl)n(C)c12` [Example 9, 2-(2,6-Dichlorophenylamino)-1,7-dimethyl-9-oxo-1,8-dihydro-imidazo[4,5-h]isoquinolin-6-yl acetic acid ethyl ester], the melting point was 280 to 285 °C (dec.).

The compound `Cc1[nH]c(=O)c2c(ccc3nc(Nc4c(Cl)cccc4Cl)n(C)c32)c1CCO` [Example 10, 2-(2,6-Dichlorophenylamino)-1,7-dimethyl-6-(2-hydroxyethyl)-1,8-dihydro-imidazo[4,5-h]isoquinoline-9-one] returned a melting point of more than 300 °C.

`COC(=O)/C=C/c1[nH]c(=O)c2c(ccc3nc(Nc4c(Cl)cccc4Cl)n(C)c32)c1C` [Example 12, 3-[2-(2,6-Dichlorophenylamino)-1,6-dimethyl-9-oxo-8,9-dihydro-1H-imidazo[4,5-h]isoquinolin-7-yl]-acrylic acid methyl ester] returned a melting point of more than 300 °C.

The compound `Cc1c(/C=C/CO)[nH]c(=O)c2c1ccc1nc(Nc3c(Cl)cccc3Cl)n(C)c12` [Example 14, 2-(2,6-Dichlorophenylamino)-1,6-dimethyl-7-(3-hydroxy-propen-1-yl)-1,8-dihydro-imidazo[4,5-h]isoquinolin-9-one] displayed a melting point of 298 to 300 °C.

Compound `C=Cc1[nH]c(=O)c2c(ccc3nc(Nc4c(Cl)cccc4Cl)n(C)c32)c1C` [Example 15, 2-(2,6-Dichlorophenylamino)-1,6-dimethyl-7-vinyl-1,8-dihydro-imidazo[4,5-h]isoquinoline-9-one] had a melting point of more than 300 °C.

Compound `C=CC(O)c1[nH]c(=O)c2c(ccc3nc(Nc4c(Cl)cccc4Cl)n(C)c32)c1C` (stereo not shown) [Example 16, 2-(2,6-Dichlorophenylamino)-1,6-dimethyl-7-(1-hydroxyprop-2-en-1-yl)-1,8-dihydro-imidazo[4,5-h]isoquinolin-9-one] displayed a melting point of 235 to 236 °C.

As for `Cc1c(/C=C/CN2CCOCC2)[nH]c(=O)c2c1ccc1nc(Nc3c(Cl)cccc3Cl)n(C)c12` [Example 18, 2-(2,6-Dichlorophenylamino)-1,6-dimethyl-7-(3-morpholin-4-yl-propen-1-yl)-1,8-dihydro-imidazo[4,5-h]-isoquinolin-9-one], the melting point is 175 to 177 °C.

With `Cc1c(CNCc2ccccc2)[nH]c(=O)c2c1ccc1nc(Nc3c(Cl)cccc3Cl)n(C)c12` [Example 19, 7-Benzylaminomethyl-2-(2,6-dichlorophenylamino)-1,6-dimethyl-1,8-dihydro-imidazo[4,5-h]-isoquinolin-9-one], the melting point lay within 231 to 234 °C.

`Cc1c(-c2cnco2)[nH]c(=O)c2c1ccc1nc(Nc3c(Cl)cccc3Cl)n(C)c12` [Example 20, 2-(2,6-Dichlorophenylamino)-1,6-dimethyl-7-oxazol-5-yl-1,8-dihydro-imidazo[4,5-h]isoquinolin-9-one]: the melting point was more than 300 °C.

`Cc1c(-c2cncn2C)[nH]c(=O)c2c1ccc1nc(Nc3c(Cl)cccc3Cl)n(C)c12` [Example 21, 2-(2,6-Dichlorophenylamino)-1,6-dimethyl-7-(3-methyl-3H-imidazol-4-yl)-1,8-dihydro-imidazo[4,5-h]isoquinolin-9-one] came in with a melting point of more than 300 °C.

For `O=c1[nH]c2ccccc2c2ccc3nc(Nc4c(Cl)cccc4Cl)[nH]c3c12` [Example 26, 2-(2,6-Dichlorophenylamino)-3,5-dihydro-imidazo[4,5-i]phenanthridin-4-one], the melting point was more than 300 °C.

Take `Cn1c(Nc2c(Cl)cccc2Cl)nc2ccc3c4c([nH]c(=O)c3c21)CCC4` [Example 27, 2-(2,6-Dichlorophenylamino)-3-methyl-5,6,7,8-tetrahydro-3H-1,3,5-triaza-dicyclopenta[a,f]naphthalen-4-one]: the melting point is > 300 °C (dec.).

`Cc1c(/C=C/CN)[nH]c(=O)c2c1ccc1nc(Nc3c(Cl)cccc3Cl)n(C)c12` [Example 28, 7-(3-Aminopropen-1-yl)-2-(2,6dichlorophenylamino)-1,6-dimethyl-1,8-dihydro-imidazo[4,5-h]-isoquinolin-9-one] yielded a melting point of more than 300 °C.
